Active and inactive are the calls of the source. The calls are words filed in the database; no cut-off is given here. A value given as a limit tells only on which side of the number the result lay.

Data on 7 compounds can be found in ChEMBL document CHEMBL4819037, “Phytochemical Profiling and Biological Activity of the Australian Carnivorous Plant, Drosera magna” (J Nat Prod, 2021).

The subject of one data set is Klebsiella pneumoniae. The experiment in a line: Antimicrobial activity against Klebsiella pneumoniae ATCC 700603 assessed as inhibition of bacterial growth at 32 ug/ml incubated for 18 hrs by resazurin dye based assay. In kind it is functional, organism-based. The conditions noted are these: dose 32.0 µg/ml. A general note: The colour change of resazurin is a common sign of viable cells or microbes.

The test system of data set [1] is Cryptococcus neoformans. The experiment in a line: Antimicrobial activity against Cryptococcus neoformans var. grubii ATCC 208821 assessed as inhibition of fungal growth at 32 ug/ml incubated for 24 hrs by resazurin dye based assay. As to conditions: dose 32.0 µg/ml. Format: functional.
For data set [2], the system named is Staphylococcus aureus. The experiment in a line: Antimicrobial activity against methicillin-resistant Staphylococcus aureus ATCC 43300 assessed as inhibition of bacterial growth at 32 ug/ml incubated for 18 hrs by resazurin dye based assay. In kind it is functional, organism-based. As to conditions: dose 32.0 µg/ml.
For data set [3], the system named is Candida albicans. In words: Antimicrobial activity against Candida albicans ATCC 90028 assessed as inhibition of fungal growth at 32 ug/ml incubated for 24 hrs by resazurin dye based assay. In kind it is functional, organism-based. The conditions noted are these: dose 32.0 µg/ml.
A further data set concerns Pseudomonas aeruginosa. In words: Antimicrobial activity against Pseudomonas aeruginosa ATCC 27853 assessed as inhibition of bacterial growth at 32 ug/ml incubated for 18 hrs by resazurin dye based assay. In kind it is functional, organism-based. The conditions noted are these: dose 32.0 µg/ml.
Another data set relates to Acinetobacter baumannii. In words: Antimicrobial activity against Acinetobacter baumannii ATCC 19606 assessed as inhibition of bacterial growth at 32 ug/ml incubated for 18 hrs by resazurin dye based assay. In kind it is functional, organism-based. The conditions noted are these: ATCC 19606 = CIP 70.34 = JCM 6841, dose 32.0 µg/ml.
In the next data set the test system is Escherichia coli. In words: Antimicrobial activity against Escherichia coli ATCC 25922 assessed as inhibition of bacterial growth at 32 ug/ml incubated for 18 hrs by resazurin dye based assay. In kind it is functional, organism-based. The conditions noted are these: dose 32.0 µg/ml.
The test system of data set [4] is Staphylococcus aureus. In words: Antimicrobial activity against methicillin-resistant Staphylococcus aureus ATCC 43300 assessed as inhibition of bacterial growth at < 0.2 ug/ml incubated for 18 hrs by resazurin dye based assay. The conditions noted are these: dose microg/ml <0.2. In kind it is functional. Also on record: scale not given: the % may be the effect or the level left.

In the next data set the test system is HEK293. In words: Cytotoxicity against human HEK293 cells at 32 ug/ml. Format: cell-based.
Data set [5] deals with Cryptococcus neoformans. In words: Antimicrobial activity against Cryptococcus neoformans var. grubii ATCC 208821 assessed as inhibition of fungal growth at 8 ug/ml incubated for 24 hrs by resazurin dye based assay. Format: functional. Also on record: scale not given: the % may be the effect or the level left. As to conditions: dose 8 µg/ml.
A short description of data set [6]: Hemolytic activity against RBC (unknown origin) at 32 ug/ml. In kind it is ADME, cell-based, Erythrocyte. As to conditions: red blood cells (erythrocytes), at 32 µg/mL, read-out: Activity.
Data set [7] deals with Candida albicans. In words: Antimicrobial activity against Candida albicans ATCC 90028 assessed as inhibition of fungal growth at 8 ug/ml incubated for 24 hrs by resazurin dye based assay. In kind it is functional. Also on record: scale not given: the % may be the effect or the level left. The conditions noted are these: dose 8 µg/ml.
The test system of data set [8] is Haemonchus contortus. The experiment in a line: Anti-helmintic activity against fourth stage L4 Haemonchus contortus larvae assessed as inhibition of larvae motility at 100 uM after 72 hrs. On the set-up: scale not given: the % may be the effect or the level left. In kind it is functional.
Data set [9] relates to Haemonchus contortus. In words: Anti-helmintic activity against fourth stage L4 Haemonchus contortus larvae assessed as induction of abnormal morphological phenotype at >= 50 uM after 7 days. In kind it is functional, organism-based. The conditions noted are these: dose microM >=50, time 7.0 day.
The subject of data set [10] is Cryptococcus neoformans. In words: Antimicrobial activity against Cryptococcus neoformans var. grubii ATCC 208821 assessed as inhibition of fungal growth at 4 ug/ml incubated for 24 hrs by resazurin dye based assay. In kind it is functional. The conditions noted are these: dose 4 µg/ml. On the set-up: scale not given: the % may be the effect or the level left.
Data set [11] deals with Haemonchus contortus. The experiment in a line: Anti-helmintic activity against third-stage xL3 Haemonchus contortus larvae assessed as inhibition of larvae motility at 100 uM measured after 72 hrs. In kind it is functional, organism-based.

On to `O=C1CC(c2ccc(O)cc2)Oc2cc(O)c([C@@H]3O[C@H](CO)[C@@H](O)[C@H](O)[C@H]3O)c(O)c21` (some centres not stated), for which the outcome in the data set on Klebsiella pneumoniae, with Cryptococcus neoformans [1], with Staphylococcus aureus [2], in the data set with Candida albicans [3], with Pseudomonas aeruginosa and in the data set on Acinetobacter baumannii was Active. The outcome in the data set with Escherichia coli was Active.
Consider `CC1=CC(=O)c2c(O)cccc2C1=O` [PLUMBAGIN], for which the Activity in the data set on Staphylococcus aureus [4] was 96%; in the data set on HEK293 (at 32 µg/mL), 92%; in the data set with Cryptococcus neoformans [5], 100%.
On to `O=c1c(O[C@@H]2O[C@H](CO)[C@@H](O)[C@H](O)[C@H]2O)c(-c2ccc(O)c(O)c2)oc2cc(O)cc(O)c12` [ISOQUERCETIN], for which the outcome in the data set with Klebsiella pneumoniae, with Cryptococcus neoformans [1], in the data set on Staphylococcus aureus [2], in the data set on Pseudomonas aeruginosa, in the data set with Acinetobacter baumannii and in the data set with Escherichia coli was Active. Besides, the outcome in the data set with Candida albicans [3] was inactive. In data set [6], the hemolysis at 32 ug/ml is over 10%.
For `CC1=C(O)C(=O)c2c(OC3OC(CO)C(O)C(O)C3O)ccc(O)c2C1=O` (configuration not stated), the result in the data set with Candida albicans [3] was Active.
Turning to `CC1=C(O)C(=O)c2c(O)ccc(O)c2C1=O`, the Activity is recorded as 98% with Candida albicans [7], 27% with Haemonchus contortus [8], “Non-Toxic” with HEK293 (dose 32 µg/ml) and 100% with Cryptococcus neoformans [10]. In addition, in the data set on Haemonchus contortus [9], the outcome was Active. The result with Haemonchus contortus [11] was inactive.
On to `COc1ccc(-c2oc3cc(OC4OC(C)C(O)C(O)C4O)cc(O)c3c(=O)c2OC2OC(C)C(O)C(O)C2O)cc1O` (configuration not stated), for which the result in the data set with Haemonchus contortus [11] was inactive.
Same read-out and setting: the same measure for `COc1ccc(-c2oc3cc(OC4OC(C)C(O)C(OC(C)=O)C4O)cc(O)c3c(=O)c2OC2OC(C)C(O)C(O)C2O)cc1O` (configuration not stated): “inactive”.
